We go through one compound from patent publication US11160798B2, “Neuroprotective CB2 receptor agonists” (THE CLEVELAND CLINIC FOUNDATION, priority 2012, dated 2021).

SMILES strings stand for the structures.

The target of one assay is rCB1 (Rattus norvegicus, UniProt P20272). Conditions: cited from earlier work.
Another assay concerns CA1 neurons. The assay is described as follows: Long-term potentiation (LTP) in hippocampal CA1 slices. As to conditions: for average LTP: Aβ+MDA7 group (15 mg/kg i.p. 14 days), n=9. The assay is classed as in vivo, rat. On the procedure:
(§1) Animals were divided into several groups ([…]). The Aβ1-40 group received bilateral intracerebral microinjection of Aβ1-40 fibrils once and saline intraperitoneally (i.p.) daily for 14 days. The Aβ1-40+MDA7 group received bilateral intracerebral microinjection of Aβ1-40 fibrils once and 15 mg/kg MDA7 i.p. daily for 14 days. Other cohorts received smaller doses of MDA7 (5 mg/kg or 1.5 mg/kg) i.p. daily for 14 days to determine the dose-response characteristics for MDA7. In other groups, AM630 (a CB2 antagonist) 5 mg/kg i.p. was administered daily for 14 days either alone (Aβ1-40+AM630 group) or 15 min prior to MDA7 (15 mg/kg i.p.) administration (Aβ1-40+MDA7+AM630 group) to rats injected with β1-40 fibrils. MDA7 group and control group received bilateral intracerebral microinjection of artificial cerebrospinal fluid (130 mM NaCl, 2.6 mM KCl. 4.3 mM MgCl2 and 1.8 mM CaCl2) once and 15 mg/kg MDA7 or saline i.p. daily for 14 days, respectively. Intraperitoneal administration of AM630, MDA7 or saline started on the same day after intracerebral microinjection of Aβ1-40. All drugs were prepared coded. Decoding was performed at the end of all experiments.
Hippocampal slice preparation. Brain slices containing hippocampus were prepared. Brain slices used for electrophysiological recording were obtained from all rats (n=10-12 rats per group) that had been subjected to the Morris water maze test. All rats were anesthetized with pentobarbital and then euthanized by decapitation. […]
Whole-cell patch clamp recordings in hippocampal slices. […] The series resistance was optimally compensated by ≥70% and constantly monitored throughout the experiments. […] Excitatory postsynaptic currents (EPSCs) were recorded in the CA1 area in the presence of GABAA antagonist bicuculline (30 μM). The evoked EPSCs were filtered at 2 kHz, digitized at 10 kHz, and acquired and analyzed using Axograph X software. The amplitude of EPSCs was monitored for a baseline period of at least 15 min. […]

Another assay addresses hCB1 (Homo sapiens, UniProt P21554). As to conditions: cited from earlier work.
The test system of the next assay is CD11b. The assay is described as follows: CD11b immunoreactivity in hippocampal CA1 area (immunostaining, immunoblotting). It counts as in vivo, rat. On the procedure: as §1
Microinjection of amyloid fibrils into the hippocampal CA1 area. Rats were anesthetized with sodium pentobarbital (45 mg/kg i.p.) and restrained in a stereotaxic apparatus. Aβ1-40 fibrils were formed as described previously. […]
Immunostaining. […] Three to six sections from each rat were randomly selected and were analyzed using Leica DMLB fluorescence microscope (Leica Microsystems Wetzlar GmbH, Germany) by one investigator, who was blinded to the origin of tissue being examined. Images were quantified using MCID Core software version 7.0 (InterFocus Imaging Ltd, Cambridge, England). […]
Background: Immunoblotting shows a protein as a band on a membrane.

Chain of hCB1 (P21554 whole entry): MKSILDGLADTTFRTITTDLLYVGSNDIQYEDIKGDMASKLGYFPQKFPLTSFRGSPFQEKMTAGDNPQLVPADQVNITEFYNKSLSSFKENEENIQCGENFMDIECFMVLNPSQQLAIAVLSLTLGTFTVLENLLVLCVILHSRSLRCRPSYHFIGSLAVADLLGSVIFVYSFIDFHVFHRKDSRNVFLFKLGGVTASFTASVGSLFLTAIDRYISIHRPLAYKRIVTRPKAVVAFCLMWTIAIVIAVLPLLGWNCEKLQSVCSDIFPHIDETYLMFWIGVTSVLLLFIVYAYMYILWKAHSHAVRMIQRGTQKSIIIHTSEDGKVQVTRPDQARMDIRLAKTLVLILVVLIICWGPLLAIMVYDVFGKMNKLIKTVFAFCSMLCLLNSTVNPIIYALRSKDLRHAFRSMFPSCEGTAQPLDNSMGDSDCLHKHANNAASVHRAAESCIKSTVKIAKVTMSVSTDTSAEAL
Chain of rCB1 (P20272 whole entry): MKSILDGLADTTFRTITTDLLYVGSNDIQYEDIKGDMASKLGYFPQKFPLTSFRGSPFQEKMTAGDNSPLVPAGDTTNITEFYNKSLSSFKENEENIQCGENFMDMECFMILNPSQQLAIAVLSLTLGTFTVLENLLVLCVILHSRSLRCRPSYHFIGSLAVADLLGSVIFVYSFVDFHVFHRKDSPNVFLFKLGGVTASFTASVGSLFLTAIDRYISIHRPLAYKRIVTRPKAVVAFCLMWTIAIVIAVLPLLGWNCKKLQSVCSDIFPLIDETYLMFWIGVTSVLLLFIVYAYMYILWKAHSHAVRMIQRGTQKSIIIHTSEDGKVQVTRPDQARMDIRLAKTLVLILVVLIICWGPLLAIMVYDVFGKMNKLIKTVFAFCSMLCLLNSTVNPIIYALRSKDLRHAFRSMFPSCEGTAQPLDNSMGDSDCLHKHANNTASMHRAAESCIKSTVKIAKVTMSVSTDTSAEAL

As for `CC1(Cc2ccccc2)COc2cc(C(=O)N3CCCCC3)ccc21` (centres unmarked) [MDA7, 3-benzyl-3-methyl-2,3-dihydrobenzofuran-6-carboxylic acid-piperidine amide], the “EC50 at rCB1” value on rCB1 is on record as “not active”. Besides, the “average LTP” value came out at 214.5±23.6% in the assay with CA1 neurons (30 min after induction) and 195.7±21.8% in the assay on CA1 neurons (60 min after induction). In the assay with CA1 neurons (hippocampal slices of control rats (no Aβ1-40)), the “induction of LTP, treatment alone” value was “failed to significantly affect”. Besides, the “EC50 at hCB1” value on hCB1 is reported as “not active”. The CD11b immunofluorescence intensity result in the assay on CD11b (Aβ1-40-injected rats, i.p. for 14 days, vs saline, hippocampal CA1) is “significantly less”. For the same compound, the “CD11b protein expression (immunoblot)” value with CD11b (Aβ-injected rats, 14 days i.p. (15 mg/kg), vs saline, hippocampal CA1) is recorded as “significantly attenuated”. For the same compound, the “CD11B expression, treatment alone” value with CD11b (rats without Aβ1-40, compared to control rats) was “no significant effect”.
